Experimental data taken from PubChem BioAssay AID1963872 (Molecular Pharmacology Branch, DTP, NCI, 2024).

Test system: KRAS patient-derived spheroids with HUVEC/MSC, viability
Assay: Anticancer human tumor 519858-162-T-J1-PDC patient-derived colon adenocarcinoma cell line growth inhibition [KRAS2]
Settings: for viability, T/C: stronger effect = lower value
Procedure, shortened: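 KRAS-mutant tumor cells were grown as spheroids with HUVEC endothelial cells and human MSCs as stroma. Targeted agents were tested alone and with KRAS pathway inhibitors. Doses started at or near clinical Cmax, or 10 microM, descending half-log.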

[1] = curve of first compound, second compound 0.1 µM
[2] = curve of first compound, second compound 0.316 µM
[3] = curve of first compound, second compound 1 µM
[4] = curve of first compound, second compound 3.16 µM
[5] = curve of first compound, second compound 10 µM
[6] = second compound 0.1 µM, first compound 0.01 µM
[7] = second compound 0.1 µM, first compound 0.0316 µM
[8] = second compound 0.1 µM, first compound 0.1 µM
[9] = second compound 0.1 µM, first compound 0.316 µM
[10] = second compound 0.1 µM, first compound 1 µM
[11] = second compound 0.1 µM, first compound 3.16 µM
[12] = second compound 0.316 µM, first compound 0.01 µM
[13] = second compound 0.316 µM, first compound 0.0316 µM
[14] = second compound 0.316 µM, first compound 0.1 µM
[15] = second compound 0.316 µM, first compound 0.316 µM
[16] = second compound 0.316 µM, first compound 1 µM
[17] = second compound 0.316 µM, first compound 3.16 µM
[18] = second compound 1 µM, first compound 0.01 µM
[19] = second compound 1 µM, first compound 0.0316 µM
[20] = second compound 1 µM, first compound 0.1 µM
[21] = second compound 1 µM, first compound 0.316 µM
[22] = second compound 1 µM, first compound 1 µM
[23] = second compound 1 µM, first compound 3.16 µM
[24] = second compound 3.16 µM, first compound 0.01 µM
[25] = second compound 3.16 µM, first compound 0.0316 µM
[26] = second compound 3.16 µM, first compound 0.1 µM
[27] = second compound 3.16 µM, first compound 0.316 µM
[28] = second compound 3.16 µM, first compound 1 µM
[29] = second compound 3.16 µM, first compound 3.16 µM
[30] = second compound 10 µM, first compound 0.01 µM
[31] = second compound 10 µM, first compound 0.0316 µM
[32] = second compound 10 µM, first compound 0.1 µM
[33] = second compound 10 µM, first compound 0.316 µM
[34] = second compound 10 µM, first compound 1 µM
[35] = second compound 10 µM, first compound 3.16 µM
[36] = second compound 0.1 µM, first compound 10 µM
[37] = second compound 0.316 µM, first compound 10 µM
[38] = second compound 1 µM, first compound 10 µM
[39] = second compound 3.16 µM, first compound 10 µM
[40] = second compound 10 µM, first compound 10 µM
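Further: compound exposure lasted seven days before readout.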
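Wherever viability, T/C is given: 100% = DMSO vehicle control viability.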

| SMILES | IC50 [1] | IC50 [2] | IC50 [3] | IC50 [4] | viability, T/C [7] | viability, T/C [8] | viability, T/C [9] | viability, T/C [10] | viability, T/C [13] | viability, T/C [14] | viability, T/C [15] | viability, T/C [16] | viability, T/C [19] | viability, T/C [20] | viability, T/C [21] | viability, T/C [22] | viability, T/C [25] | viability, T/C [26] | viability, T/C [27] | viability, T/C [28] | further results |
| --- | --- | --- | --- | --- | --- | --- | --- | --- | --- | --- | --- | --- | --- | --- | --- | --- | --- | --- | --- | --- | --- |
| CC(=O)OC12COC1CC(O)C1(C)C(=O)C(O)C3=C(C)C(OC(=O)C(O)C(NC(=O)OC(C)(C)C)c4ccccc4)CC(O)(C(OC(=O)c4ccccc4)C21)C3(C)C (stereo not drawn) + CNCc1ccccc1-c1csc(C(C)Nc2nc(C)nc3cc(OC)c(OC)cc23)c1 | > 3.16 µM | > 3.16 µM | > 3.16 µM | 0.0816 µM | 75% | 77% | 74.6% | 78% | 66.5% | 85.8% | 71.9% | 63.6% | 129% | 94.9% | 106% | 86.2% | 74.8% | 38.7% | 38% | 21.1% | IC50 [5]: < 0.01 µM; viability, T/C [6]: 96.1%; viability, T/C [11]: 62.5%; viability, T/C [12]: 76.2%; viability, T/C [17]: 73.9%; viability, T/C [18]: 80.8%; viability, T/C [23]: 68.5%; viability, T/C [24]: 117%; viability, T/C [29]: 80.8%; viability, T/C [30]: 43.4%; viability, T/C [31]: 1.29%; viability, T/C [32]: 10.6%; viability, T/C [33]: 8.61%; viability, T/C [34]: 86.4%; viability, T/C [35]: 2.58% |
| CC(=O)OC12COC1CC(O)C1(C)C(=O)C(O)C3=C(C)C(OC(=O)C(O)C(NC(=O)OC(C)(C)C)c4ccccc4)CC(O)(C(OC(=O)c4ccccc4)C21)C3(C)C (stereo not drawn) + COc1cc2nc(C)nc(NC(C)c3cc(N)cc(C(F)(F)F)c3)c2cc1OC1CCOC1 | > 3.16 µM | > 3.16 µM | > 3.16 µM | > 3.16 µM | 115% | 98.3% | 122% | 92% | 112% | 99% | 71.6% | 66.9% | 76.1% | 105% | 89.8% | 110% | 112% | 76.4% | 79.7% | 56.1% | IC50 [5]: > 3.16 µM; viability, T/C [6]: 123%; viability, T/C [11]: 94.6%; viability, T/C [12]: 99%; viability, T/C [17]: 78.9%; viability, T/C [18]: 91.3%; viability, T/C [23]: 90.9%; viability, T/C [24]: 72%; viability, T/C [29]: 82.3%; viability, T/C [30]: 112%; viability, T/C [31]: 97.4%; viability, T/C [32]: 65%; viability, T/C [33]: 62.7%; viability, T/C [34]: 66.5%; viability, T/C [35]: 96.8% |
| Cn1ncnc1[C@H]1c2n[nH]c(=O)c3cc(F)cc(c23)N[C@@H]1c1ccc(F)cc1 |  |  |  |  |  |  |  |  |  |  |  |  |  |  |  |  |  |  |  |  | viability, T/C (compound 0.00316 µM): 85.4% [middle of 5 runs]; viability, T/C (compound 0.01 µM): 87% [middle of 5 runs]; IC50 (curve of compound): > 0.1 µM |
| COC(=O)c1ccc2c(C(=Nc3ccc(N(C)C(=O)CN4CCN(C)CC4)cc3)c3ccccc3)c(O)[nH]c2c1 + CNCc1ccccc1-c1csc(C(C)Nc2nc(C)nc3cc(OC)c(OC)cc23)c1 | > 10 µM | > 10 µM | > 10 µM | 2.34 µM | 96.8% | 83.2% | 77.4% | 100% | 58.2% | 91.8% | 57% | 89.9% | 66.9% | 110% | 103% | 57.1% | 59.4% | 128% | 73.3% | 74.8% | IC50 [5]: < 0.0316 µM; viability, T/C [11]: 92.4%; viability, T/C [36]: 73.3%; viability, T/C [17]: 90.5%; viability, T/C [37]: 92%; viability, T/C [23]: 64.7%; viability, T/C [38]: 70.4%; viability, T/C [29]: 40%; viability, T/C [39]: 37.6%; viability, T/C [31]: 0.86%; viability, T/C [32]: 0.39%; viability, T/C [33]: 0.42%; viability, T/C [34]: 0.31%; viability, T/C [35]: 0.28%; viability, T/C [40]: 1.62% |
| COc1cc(Nc2ncc3c(n2)-c2ccc(Cl)cc2C(c2c(F)cccc2OC)=NC3)ccc1C(=O)O + C=CC(=O)N1CCN(c2nc(=O)n(-c3c(C)ccnc3C(C)C)c3nc(-c4c(O)cccc4F)c(F)cc23)C(C)C1 | > 10 µM | > 10 µM | > 10 µM | > 10 µM | 104% | 62.4% | 89.9% | 102% | 80% | 91.2% | 74.1% | 53.3% | 97.2% | 94.4% | 91.5% | 85.5% | 134% | 74.8% | 57.1% | 90.1% | IC50 [5]: > 10 µM; viability, T/C [11]: 104%; viability, T/C [36]: 120%; viability, T/C [17]: 89.9%; viability, T/C [37]: 125%; viability, T/C [23]: 83%; viability, T/C [38]: 125%; viability, T/C [29]: 71.3%; viability, T/C [39]: 91.1%; viability, T/C [31]: 95.1%; viability, T/C [32]: 74.1%; viability, T/C [33]: 83%; viability, T/C [34]: 71%; viability, T/C [35]: 73%; viability, T/C [40]: 103% |
| CCN1CCN(Cc2ccc(Nc3ncc(F)c(-c4cc(F)c5nc(C)n(C(C)C)c5c4)n3)nc2)CC1 + C=CC(=O)N1CCN(c2nc(OCC3CCCN3C)nc3c2CCN(c2cccc4cccc(C)c24)C3)CC1CC#N | 0.599 µM | > 1 µM | 0.654 µM | > 1 µM | 75.8% | 76.4% | 68.7% | 34.9% | 70.7% | 64.9% | 49.1% | 56.5% | 60.8% | 63% | 73% | 38.4% | 64.4% | 69.2% | 76% | 37.4% | IC50 (curve of first compound, second compound 0.0316 µM): > 1 µM; viability, T/C (second compound 0.0316 µM, first compound 0.00316 µM): 76.5%; viability, T/C (second compound 0.0316 µM, first compound 0.01 µM): 57.7%; viability, T/C (second compound 0.0316 µM, first compound 0.0316 µM): 72.2%; viability, T/C (second compound 0.0316 µM, first compound 0.1 µM): 63.6%; viability, T/C (second compound 0.0316 µM, first compound 0.316 µM): 81.8%; viability, T/C (second compound 0.0316 µM, first compound 1 µM): 66.2%; viability, T/C (second compound 0.1 µM, first compound 0.00316 µM): 81.6%; viability, T/C [6]: 79.1%; viability, T/C (second compound 0.316 µM, first compound 0.00316 µM): 61.7%; viability, T/C [12]: 78.4%; viability, T/C (second compound 1 µM, first compound 0.00316 µM): 82.1%; viability, T/C [18]: 71.8%; viability, T/C (second compound 3.16 µM, first compound 0.00316 µM): 51.3%; viability, T/C [24]: 86.8% |
| CC1OCC2(CCN(c3cnc(Sc4ccnc(N)c4Cl)c(N)n3)CC2)C1N (stereo not drawn) + C=CC(=O)N1CCN(c2nc(=O)n(-c3c(C)ccnc3C(C)C)c3nc(-c4c(O)cccc4F)c(F)cc23)C(C)C1 | 7.23 µM | > 10 µM | 3.16 µM | > 10 µM | 94.2% | 77.3% | 68.5% | 80.4% | 90.6% | 76% | 73.1% | 59.9% | 81.6% | 68.6% | 84.3% | 50.3% | 67.2% | 101% | 75.7% | 62.5% | IC50 [5]: 3.92 µM; viability, T/C [11]: 63.1%; viability, T/C [36]: 43.7%; viability, T/C [17]: 79.6%; viability, T/C [37]: 63.3%; viability, T/C [23]: 54%; viability, T/C [38]: 49.2%; viability, T/C [29]: 53.3%; viability, T/C [39]: 65.4%; viability, T/C [31]: 56%; viability, T/C [32]: 73%; viability, T/C [33]: 72.3%; viability, T/C [34]: 55.6%; viability, T/C [35]: 56%; viability, T/C [40]: 31.2% |
